# According to patent publication US20230293519A1, “INTEGRIN INHIBITORS AND USES THEREOF IN COMBINATION WITH OTHER AGENTS” (Pliant Therapeutics, Inc., priority 2021, published 2023):
# Experiments:
# [1] = tested on: Type I Collagen gene Col1a1 expression; test: Precision cut lung slices of mice under acute bleomycin exposure; type: cell-based, mouse
# Experimental: Mice (C57BL/6) were administered 3 U/kg of bleomycin (Teva Pharmaceuticals; North Wales, PA) on day 0 via oropharyngeal aspiration while under anesthesia. On day 14, precision cut lung slices were obtained. Following euthanization, 2% low gelling temp agarose was injected into the mouse lungs via the trachea. […] The lobes were then subjected to precision slicing to obtain samples for culture using a microtome (Compresstome VF-300-0Z, Precisionary; Greenville, NC). Individual slices were distributed in a multiwell culture plate and cultured for 3 days under control (DMSO) and test compound conditions.
# [2] = tested on: fibrosis-related gene expression in explanted human lung tissue from patients with idiopathic pulmonary fibrosis; test: nCounter Fibrosis Panel gene expression in precision cut lung slices from IPF explants; type: cell-based; conditions: IPF PCLS, 7 days, vs DMSO
# Excerpt: Fibrosis-related gene expression in explanted human lung tissue from patients with idiopathic pulmonary fibrosis was examined in order to determine what impact combining Compound 5 treatment with standard-of-care drugs nintedanib or pirfenidone, has on the expression of such genes.
# Samples used for this analysis are a subset (n = 4 of 7) of the lungs previously reported on in Decaris et al., Respir Res (2021) 22:265 (FIGS. 6 A and B). Briefly, tissue samples from patients with IPF were acquired at the time of lung transplantation. Precision cut lung slices were generated from the explants and cultured for 7 days in the presence of inhibitors (Compound 5, nintedanib, pirfenidone) at clinically relevant concentrations or vehicle (DMSO). Treated slices were lysed in mRNA-compatible buffer for gene expression analysis. For this study, the lysate from n = 6 slices per treatment per lung were pooled for analysis using the nCounter Fibrosis Panel (Nanostring) on the nCounter Max analyzer (Nanostring). This commercially available panel of 770 genes includes genes related to initial tissue damage response, chronic inflammation, proliferation of pro-fibrotic cells, and tissue modification leading to fibrotic disease. Technical quality control and normalization of raw Nanostring mRNA count data was performed using an R framework developed by Bhattacharya et al. (Bhattacharya A. et al., Brief Bioinform. 2021 May 20;22(3):bbaa163). The R packages limma (see URL www.bioconductor.org/packages/release/bioc/html/limma.html) and voom (Law, C.W. et al., Genome Biol. 2014 Feb 3;15(2):R29) were used to detect differentially expressed genes. Benjamini-Hochberg False Discovery Rate (FDR = 5%) was used to adjust p-values for multiple comparisons.
# COL1A1 expression = test: PCLS from human IPF lung tissue, 7 days: COL1A1 expression; type: cell-based; conditions: Compound 5 200 nM, nintedanib 75 nM, pirfenidone 50 µM, 5-7 IPF lungs
# Experimental: PCLS from 5-7 idopathic pulmonary fibrosis (IPF) lung tissue samples were cultured for seven days with one of: DMSO; Compound 5 at 200 nM; nintedanib at 75 nM; pirfenidone at 50 µm; a combination of Compound 5 at 200 nM and nintedanib at 75 nM; a combination of Compound 5 at 200 nM and pirfenidone at 50 µm; or an Alk5 inhibitor at 1 µm. […] FIG. 6D is a bar graph showing relative expression of COL1A1 in precision cut lung slices (PCLS) from idopathic pulmonary fibrosis (IPF) lung tissue upon exposure to Comopund 5, clinical standard of care compounds nintedanib (Nin) and pirfenidone (Pirf), and an ALK5 inhibitor, all versus DMSO control.
# PCLS from a single IPF lung tissue sample were cultured for seven days with Compound 5 at concentrations of 200 pM, 2 nM, 60 nM, 200 nM, and 1 µM, along with 0.1% DMSO control and an Alk5 inhibitor at 1 µM. […] COL1A1 expression is also graphed for the PCLS in the presence of 0.1% DMSO control, and an Alk5 inhibitor at 1 µM.
# lung Col1a1 expression = test: Precision cut lung slices of mice under chronic bleomycin exposure (vs pirfenidone and nintedanib); type: cell-based, mouse; conditions: slices cultured 7 days; nintedanib and pirfenidone at 10x therapeutic concentrations
# Experimental: Mice (C57BL/6) were administered 3 U/kg of bleomycin (Teva Pharmaceuticals; North Wales, PA) on Day 0 and 1 U/kg of bleomycin on days 14, 28, 42 and 56 via oropharyngeal aspiration while under anesthesia. At day 70, 14 days following the final bleomycin insult, precision cut lung slices were obtained. Following euthanization, 2% low gelling temp agarose was injected into the mouse lungs via the trachea. […] The lobes were then subjected to precision slicing to obtain samples for culture using a microtome (Compresstome VF-300-0Z, Precisionary; Greenville, NC). Individual slices were distributed in a multiwell culture plate and cultured for 7 days under control (DMSO) and test compound conditions. The viability of the slices over the course of culturing was confirmed by WST-1 assay of mitochondrial activity.
# During the culture period, slices in the control group were treated with DMSO and slices in the test group were treated with a DMSO solution of one of: compound 5; nintedanib; pirfenidone; a combination of nintedanib and compound 5; a combination of pirfenidone and compound 5; or the small molecule ALK5 inhibitor. Compound 5 was […] effective to equal or exceed its respective IC50 values at αvβ6 and αvβ1. The small molecule ALK5 inhibitor was analyzed at 10x its reported IC50 value. Nintendanib and pirfenidone were analyzed at concentrations 10x their reported therapeutic concentrations.
# [3] = molecular target: recombinant human integrin αvβ6 (Homo sapiens (Human), UniProt P06756+P18564); test: Solid phase integrin αvβ6 binding assay; conditions: IC50 presented in four ranges; read-out: αvβ6 Inhibition IC50 (nM) - range
# Sequence of recombinant human integrin αvβ6 (P06756 31-889): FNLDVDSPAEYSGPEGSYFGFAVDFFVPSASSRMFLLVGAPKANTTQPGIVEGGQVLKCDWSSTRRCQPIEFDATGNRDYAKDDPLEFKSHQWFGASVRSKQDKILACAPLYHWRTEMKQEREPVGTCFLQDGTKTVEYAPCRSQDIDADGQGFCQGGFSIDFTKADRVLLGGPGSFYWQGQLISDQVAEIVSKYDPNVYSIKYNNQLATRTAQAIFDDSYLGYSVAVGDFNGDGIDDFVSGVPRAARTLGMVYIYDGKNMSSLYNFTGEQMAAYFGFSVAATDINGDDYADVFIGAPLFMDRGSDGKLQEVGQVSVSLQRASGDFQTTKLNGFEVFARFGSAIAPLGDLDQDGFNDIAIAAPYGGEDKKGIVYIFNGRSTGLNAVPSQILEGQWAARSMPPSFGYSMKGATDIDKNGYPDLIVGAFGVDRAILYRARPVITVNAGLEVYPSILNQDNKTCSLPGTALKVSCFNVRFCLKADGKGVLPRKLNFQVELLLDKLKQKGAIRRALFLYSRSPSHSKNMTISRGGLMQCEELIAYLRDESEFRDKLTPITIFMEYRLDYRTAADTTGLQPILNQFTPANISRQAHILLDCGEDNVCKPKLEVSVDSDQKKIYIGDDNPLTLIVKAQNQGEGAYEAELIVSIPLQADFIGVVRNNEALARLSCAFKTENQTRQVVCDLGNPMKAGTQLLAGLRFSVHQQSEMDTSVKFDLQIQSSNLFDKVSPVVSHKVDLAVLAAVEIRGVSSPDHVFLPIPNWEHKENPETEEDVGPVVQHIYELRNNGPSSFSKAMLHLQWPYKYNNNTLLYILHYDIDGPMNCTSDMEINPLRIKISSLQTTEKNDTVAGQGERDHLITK
# Sequence of recombinant human integrin αvβ6 (P06756 890-992 partner): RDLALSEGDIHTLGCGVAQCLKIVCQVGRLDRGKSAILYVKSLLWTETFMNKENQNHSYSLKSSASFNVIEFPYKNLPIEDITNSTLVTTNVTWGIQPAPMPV
# Sequence of recombinant human integrin αvβ6 (P18564 22-707): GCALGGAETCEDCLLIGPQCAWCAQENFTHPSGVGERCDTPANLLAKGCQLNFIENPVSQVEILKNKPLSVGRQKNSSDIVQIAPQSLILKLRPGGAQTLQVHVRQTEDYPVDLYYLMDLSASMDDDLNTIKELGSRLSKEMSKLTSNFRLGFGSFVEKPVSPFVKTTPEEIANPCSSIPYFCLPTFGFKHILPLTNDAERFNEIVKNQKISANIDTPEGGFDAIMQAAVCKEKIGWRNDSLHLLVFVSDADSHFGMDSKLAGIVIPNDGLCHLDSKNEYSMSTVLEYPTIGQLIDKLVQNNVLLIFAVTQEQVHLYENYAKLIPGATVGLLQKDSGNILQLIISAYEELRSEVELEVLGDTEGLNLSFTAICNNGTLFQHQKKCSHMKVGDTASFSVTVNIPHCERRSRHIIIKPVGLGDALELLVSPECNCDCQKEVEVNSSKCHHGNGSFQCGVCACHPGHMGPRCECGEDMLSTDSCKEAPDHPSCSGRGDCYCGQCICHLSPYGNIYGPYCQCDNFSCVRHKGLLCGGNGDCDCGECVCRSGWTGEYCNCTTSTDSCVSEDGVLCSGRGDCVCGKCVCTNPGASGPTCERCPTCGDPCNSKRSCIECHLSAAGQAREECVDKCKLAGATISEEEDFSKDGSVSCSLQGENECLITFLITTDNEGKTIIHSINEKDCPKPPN
# Experimental: (§1) Microplates were coated with recombinant human integrin αvβ6 (2 µg/mL) in PBS (100 µL/well 25° C., overnight). The coating solution was removed, washed with wash buffer (0.05% Tween 20; 0.5 mM MnCl2; in 1x TBS). The plate was blocked with 200 µL/well of Block Buffer (1% BSA; 5% sucrose; 0.5 mM MnCl2; in 1x TBS) at 37° C. for 2 h. Dilutions of testing compounds and recombinant TGFβ1 LAP (0.67 µg/mL) in binding buffer (0.05% BSA; 2.5% sucrose; 0.5 mM MnCl2; in 1x TBS) were added. The plate was incubated for 2 hours at 25° C., washed, and incubated for 1 hour with Biotin-Anti-hLAP. Bound antibody was detected by peroxidase-conjugated streptavidin. The IC50 values for testing compounds were calculated by a four-parameter logistic regression.
# The compounds tested were compound samples prepared according to procedures described in the Synthetic Examples section, with the stereochemical purity as indicated in the Examples.
# as §1, with “A third series of exemplary compounds was selected for testing in the solid phase integrin αvβ6 binding assay. The compounds tested were compound samples prepared according to procedures described in the Synthetic Examples section, with the stereochemical purity as indicated in the Examples. As in Example B1, microplates” for “Microplates”
structure (smiles),measurement,setting,value
"COC(=O)c1ccc2c(c1)NC(=O)/C2=C(\Nc1ccc(N(C)C(=O)CN2CCN(C)CC2)cc1)c1ccccc1 [nintedanib, 3-Z-[1-(4-(N-((4-methyl-piperazin-1-yl)-methylcarbonyl)-N-methyl-amino)-anilino)-1-phenyl-methylene]-6-methoxycarbonyl-2-indolinone]",fold increase in concentration over compound 5 needed to reduce lung slice Col1a1 expression by 50%,[1]; acute bleomycin injured lung slices,5.2 fold
same,% Reduction of APOC2 expression,[2],16.88%
same,% Reduction of CDH2 expression,[2],-9.99%
same,% Reduction of COL1A1 expression,[2],27.60%
same,% Reduction of COL4A2 expression,[2],31.55%
same,% Reduction of FAP expression,[2],35.72%
same,% Reduction of FCGR3A/B expression,[2],33.44%
same,% Reduction of ITGB3 expression,[2],16.60%
same,% Reduction of LOX expression,[2],40.76%
same,% Reduction of LOXL2 expression,[2],15.99%
same,% Reduction of NID1 expression,[2],26.59%
same,% Reduction of PDGFRB expression,[2],42.09%
same,% Reduction of POSTN expression,[2],38.94%
same,% Reduction of SERPINE1 expression,[2],9.75%
same,% Reduction of SERPINH1 expression,[2],15.02%
same,% Reduction of SPP1 expression,[2],59.73%
same,% Reduction of TGFB1 expression,[2],21.04%
same,% Reduction of THBS2 expression,[2],25.58%
same,logFC of ACTA2 expression,[2],0.6841
same,logFC of ACVRL1 expression,[2],-1.329
same,logFC of ADH1B expression,[2],0.8975
same,logFC of ADH1C expression,[2],0.9337
same,logFC of ALDH7A1 expression,[2],0.7402
same,logFC of AMOTL2 expression,[2],0.5767
same,logFC of CCL19 expression,[2],0.789
same,logFC of CD34 expression,[2],-1.516
same,logFC of CDH5 expression,[2],-2.328
same,logFC of CETP expression,[2],-1.732
same,logFC of CFTR expression,[2],0.8907
same,logFC of COL6A5 expression,[2],0.6309
same,logFC of COL10A1 expression,[2],-1.169
same,logFC of COX4I2 expression,[2],-2.07
same,logFC of CXCL10 expression,[2],-1.71
same,logFC of CXCR4 expression,[2],-1.727
same,logFC of CYP2J2 expression,[2],1.025
same,logFC of DLL4 expression,[2],-2.786
same,logFC of ELN expression,[2],0.8689
same,logFC of FLT1 expression,[2],-3.369
same,logFC of FLT4 expression,[2],-1.476
same,logFC of FST expression,[2],1.092
same,logFC of GPX2 expression,[2],1.178
same,logFC of IGF1 expression,[2],0.632
same,logFC of KLF5 expression,[2],0.8124
same,logFC of LAMA3 expression,[2],0.6871
same,logFC of MASP1 expression,[2],0.8164
same,logFC of MET expression,[2],0.7131
same,logFC of MMP8 expression,[2],-1.053
same,logFC of MMP9 expression,[2],-1.1396
same,logFC of MMP11 expression,[2],-1.002
same,logFC of MMP12 expression,[2],-1.411
same,logFC of NOS3 expression,[2],-1.356
same,logFC of NOTCH4 expression,[2],-1.605
same,logFC of OCLN expression,[2],0.6026
same,logFC of PECAM1 expression,[2],-1.967
same,logFC of PYGM expression,[2],0.6237
same,logFC of TEK expression,[2],-1.206
same,logFC of TPSAB1/B2 expression,[2],-1.195
same,logFC of WWC1 expression,[2],0.7518
same,reduction of COL1A1 expression,COL1A1 expression,did not significantly reduce
same,lung Col1a1 expression vs DMSO control,lung Col1a1 expression,slight increase
"CC(C)(C)c1cc(Br)cc(C(CC(=O)O)NC(=O)CNC(=O)c2cc(O)cc(NC3=NCC(O)CN3)c2)c1 [second pan-αv small molecule inhibitor, (3S)-N-[3-hydroxy-5-[(1,4,5,6-tetrahydro-5-hydroxy-2-pyrimidinyl)amino]benzoyl]glycyl-3-[3-bromo-5-(1,1-dimethylethyl)phenyl]-(3-alanine]",Type I Collagen gene Col1a1 expression vs DMSO control,"[1]; slices cultured 3 days, integrin inhibitors at IC50, pan-αv and ALK5 inhibitors at 10x IC50",reduced
O=C(O)[C@H](CCN(CCCCc1ccc2c(n1)NCCC2)CC(F)F)Nc1ncc(F)cn1 [compound 121],IC50,[3],> 1000 nM
CO[C@H](C)CN(CCCCc1ccc2c(n1)NCCC2)CC[C@H](Nc1ncc(C2CC2)cn1)C(=O)O [compound 124],IC50,[3],< 50 nM
O=C(O)[C@H](CCN(CCCCc1ccc2c(n1)NCCC2)CC(F)F)Nc1ccnc(C(F)(F)F)n1 [compound 97],IC50,[3],> 1000 nM
O=C(O)[C@H](CCN(CCCCc1ccc2c(n1)NCCC2)CCOc1ccccc1)Nc1ncc(Br)cn1 [compound 83],IC50,[3],< 50 nM
CN(C)C(=O)CN(CCCCc1ccc2c(n1)NCCC2)CC[C@H](Nc1ncnc2ccccc12)C(=O)O [compound 64],IC50,[3],< 50 nM
CO[C@H](C)CN(CCCCc1ccc2c(n1)NCCC2)CC[C@H](Nc1ncnc2c1cnn2C)C(=O)O [compound 74],IC50,[3],< 50 nM
O=C(O)[C@H](CCN(CCCCc1ccc2c(n1)NCCC2)CCC(F)F)Nc1ccnc(C2CC2)n1 [compound 135],IC50,[3],50 to 250 nM
O=C(O)[C@H](CCN(CCCCc1ccc2c(n1)NCCC2)CCOc1ccc(F)cc1)Nc1ncnc2[nH]ncc12 [compound 143],IC50,[3],50 to 250 nM
O=C(O)[C@H](CCN(CCCCc1ccc2c(n1)NCCC2)CCOCC(F)F)Nc1ncnc2ccccc12 [compound 50],IC50,[3],< 50 nM
